Results taken from US20260108546A1 (ELI LILLY AND COMPANY, priority 2024, published 2026).

Target: T1, hGIP-R (Homo sapiens, UniProt P48546)
T1 construct: expressed in transfected cells; host or cells: HEK-293 clonal cell lines
T1 sequence (P48546 22-466): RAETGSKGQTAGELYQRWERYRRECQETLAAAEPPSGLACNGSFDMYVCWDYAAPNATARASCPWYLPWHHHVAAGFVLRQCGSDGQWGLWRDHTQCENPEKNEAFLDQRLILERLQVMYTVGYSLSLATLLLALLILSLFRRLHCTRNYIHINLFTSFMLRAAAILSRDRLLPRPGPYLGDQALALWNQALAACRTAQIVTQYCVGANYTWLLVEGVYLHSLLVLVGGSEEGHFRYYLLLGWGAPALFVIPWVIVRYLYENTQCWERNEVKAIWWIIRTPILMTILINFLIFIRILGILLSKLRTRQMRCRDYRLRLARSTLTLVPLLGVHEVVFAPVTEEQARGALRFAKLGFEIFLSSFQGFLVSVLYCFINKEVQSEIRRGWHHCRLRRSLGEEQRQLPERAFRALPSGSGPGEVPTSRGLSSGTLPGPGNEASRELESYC
Experiment: Functional hGIP-R Assay (cAMP formation, HTRF)
Format: cell-based
Conditions: for Emax: cAMP efficacy, percent of maximal response to GIP(1-42)OH, 37° C., 0.1% bovine casein, arithmetic mean ± SEM; for EC50: cAMP potency, HEK-293 cells expressing hGIP-R, incubated at 37° C. in the presence of 0.1% bovine casein, geometric mean, read-out: Human GIP-R EC50, nM (SEM, n)
How it was run: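 Relative EC50 and Emax came from four-parameter logistic fits of cAMP as a percent of the human GIP (1-42) OH maximal response. The cAMP was measured by competitive HTRF after 30 min, 37 °C compound exposure of hGIP-R HEK-293 clones in IBMX (250 μM)-containing medium.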

SMILES | Emax | EC50
Cc1cn2cc(-c3ccc(C4CC45CCN([C@H](Cc4cnn(C(F)F)c4)C(=O)NC(C)(C)Cn4nc(C(F)(F)F)cc4-c4cc(F)c(=O)n(C)c4)C5=O)c(C(F)F)c3)cnc2n1 (single isomer, unassigned; isomer 1) [Example 108] | 81.7 ± 1.63% | 0.47 nM
Cn1cc(-c2cc(C(F)(F)F)nn2CC(C)(C)NC(=O)[C@@H](Cc2cnc3ncccn23)NC(=O)[C@H]2C[C@@H]2c2ccc(-c3cnc4nccn4c3)cc2)cn1 [Example 38] | 92.1% | 7.93 nM
Cc1ncc(-c2cc(C(F)(F)F)nn2CC(C)(C)NC(=O)[C@@H](Cc2cnn(C(F)F)c2)N2CCC3(CC3c3ccc(-c4cnc5nn(C)cc5c4)nc3C)C2=O)cn1 (single isomer, unassigned; isomer 1) [Example 111] | 28 ± 0.197% | 6.75 nM
[2H]C([2H])([2H])N(C(=O)[C@H]1C[C@@H]1c1ccc(-c2cnc3nn(C)cc3c2)nc1C(F)F)[C@H](Cc1cnn(C(F)F)c1)C(=O)NC(C)(C)Cn1nc(C(F)(F)F)cc1-c1cc(F)c(=O)n(C)c1 [Example 137, (1S,2S)-N-((R)-3-(1-(Difluoromethyl)-1H-pyrazol-4-yl)-1-((1-(5-(5-fluoro-1-methyl-6-oxo-1,6-dihydropyridin-3-yl)-3-(trifluoromethyl)-1H-pyrazol-1-yl)-2-methylpropan-2-yl)amino)-1-oxopropan-2-yl)-2-(2-(difluoromethyl)-6-(2-methyl-2H-pyrazolo[3,4-b]pyridin-5-yl)pyridin-3-yl)-N-(methyl-d3)cyclopropane-1-carboxamide] | 61.7 ± 1.34% | 12.3 nM
Cn1cc(C[C@@H](NC(=O)[C@H]2C[C@@H]2c2ccc(-c3cnc4nn(C)cc4c3)nc2C(F)(F)F)C(=O)NC(C)(C)Cn2cc(C(F)(F)F)cn2)cn1 [Example 22, (1S,2S)-N-((R)-1-((2-Methyl-1-(4-(trifluoromethyl)-1H-pyrazol-1-yl)propan-2-yl)amino)-3-(1-methyl-1H-pyrazol-4-yl)-1-oxopropan-2-yl)-2-(6-(2-methyl-2H-pyrazolo[3,4-b]pyridin-5-yl)-2-(trifluoromethyl)pyridin-3-yl)cyclopropane-1-carboxamide] | 109 ± 11.6% | 61.3 nM
CN1CC(n2cc3cc(-c4ccc([C@H]5C[C@@]56CCN([C@H](Cc5cnn(C(F)F)c5)C(=O)NC(C)(C)Cn5nc(C(F)(F)F)cc5-c5cc(F)c(=O)n(C)c5)C6=O)c(F)c4)cnc3n2)C1 (single isomer, unassigned; isomer 1) [Example 106] | 77.3 ± 7.69% | 36.3 nM
Cn1cc2cc(-c3ccc([C@H]4C[C@@]45CCN([C@H](Cc4cnn(C(F)F)c4)C(=O)NC(C)(C)Cn4nc(C(F)(F)F)cc4-c4ccc(P(C)(C)=O)cc4)C5=O)c(Cl)c3)cnc2n1 [Example 162, (R)-2-((1S,3R)-1-(2-chloro-4-(2-methyl-2H-pyrazolo[3,4-b]pyridin-5-yl)phenyl)-4-oxo-5-azaspiro[2.4]heptan-5-yl)-3-(1-(difluoro-methyl)-1H-pyrazol-4-yl)-N-(1-(5-(4-(dimethyl-phosphoryl)phenyl)-3-(trifluoro-methyl)-1H-pyrazol-1-yl)-2-methylpropan-2-yl)propanamide] | 50% | 0.179 nM
CN(C(=O)[C@H]1C[C@@H]1c1ccc(NC(=O)Nc2ccc(F)cc2)cc1)[C@H](Cc1cnn(C)c1)C(=O)NC(C)(C)Cc1ccc(F)cc1 [Example 36, (1S,2S)-N-((R)-1-((1-(4-Fluorophenyl)-2-methylpropan-2-yl)amino)-3-(1-methyl-1H-pyrazol-4-yl)-1-oxopropan-2-yl)-2-(4-(3-(4-fluorophenyl)ureido)phenyl)-N-methylcyclopropane-1-carboxamide] | 94 ± 11.1% | 104 nM
